#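 Where inhibition never reached the appropriate level, the endpoint shown equals the highest concentration tested. Otherwise, values were interpolated linearly from a five-concentration, 48-hour dose response in 96-well plates. Here, GI50 denotes the concentration required for 50% inhibition of growth. At the TGI there is no net growth.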
# Columns and labels:
# Experiment in all cases: NCI anticancer screen, dose series, 48 h
# [1] = tested on: U251 CNS
# [2] = tested on: T-47D breast
# [3] = tested on: ACHN renal
# [4] = tested on: UACC-257 melanoma
# [5] = tested on: MDA-MB-231 breast
# [6] = tested on: NCI-H460 lung
# [7] = tested on: SF-268 CNS
# [8] = tested on: K-562 leukemia
# [9] = tested on: OVCAR-4 ovarian
# [10] = tested on: MDA-MB-468 breast
# [11] = tested on: NCI-H226 lung
# [12] = tested on: SW-620 colon
# [13] = tested on: SR leukemia
# [14] = tested on: HOP-92 NSCLC
# [15] = tested on: OVCAR-3 ovarian
# [16] = tested on: HS 578T breast
# [17] = tested on: HOP-62 NSCLC
# [18] = tested on: A549 NSCLC
# [19] = tested on: RXF 393 renal
# [20] = tested on: COLO 205 colon
# [21] = tested on: UACC-62 melanoma
# [22] = tested on: KM12 colon
# [23] = tested on: SF-295 CNS
# [24] = tested on: SK-OV-3 ovarian
# [25] = tested on: NCI-H522 lung
# [26] = tested on: DU-145 prostate
# [27] = tested on: IGROV1 ovarian
# [28] = tested on: BT-549 breast
# [29] = tested on: SK-MEL-28 melanoma
# [30] = tested on: SNB-19 CNS
# [31] = tested on: EKVX NSCLC
# [32] = tested on: MCF7 breast
# [33] = tested on: CAKI-1 renal
# [34] = tested on: TK-10 renal
# [35] = tested on: HL-60(TB) leukemia
# [36] = tested on: HCT-116 colon
# [37] = tested on: MDA-MB-435
# [38] = tested on: HCT-15 colon
# [39] = tested on: HCC-2998 colon
# [40] = tested on: NCI-H23 lung
# [41] = tested on: LOX IMVI melanoma
# [42] = tested on: SK-MEL-5 melanoma
# [43] = tested on: A498 renal
# [44] = tested on: MALME-3M melanoma
# [45] = tested on: NCI/ADR-RES ovarian
# [46] = tested on: OVCAR-5 ovarian
# [47] = tested on: CCRF-CEM leukemia
# [48] = tested on: RPMI-8226 leukemia
# [49] = tested on: SF-539 CNS
# [50] = tested on: UO-31 renal
# [51] = tested on: OVCAR-8 ovarian
# [52] = tested on: MOLT-4 leukemia
# [53] = tested on: PC-3 prostate
# [54] = tested on: M14 melanoma
# [55] = tested on: SK-MEL-2 melanoma
# [56] = tested on: SN12C renal
# [57] = tested on: SNB-75 CNS
# [58] = tested on: HT29 colon
# [59] = tested on: 786-0 renal
smiles,measurement,setting,value
COc1cccc2nc(Nc3cccc(NC(=O)c4ccc(CN5CCN(C)CC5)c(C(F)(F)F)c4)c3)ccc12,GI50,[1],1.92 µM
same,TGI,[1],3.71 µM
same,GI50,[2],2.28 µM
same,TGI,[2],5.78 µM
same,GI50,[3],2.05 µM
same,TGI,[3],4.4 µM
same,GI50,[4],1.98 µM
same,TGI,[4],3.85 µM
same,GI50,[5],1.77 µM
same,TGI,[5],3.39 µM
same,GI50,[6],1.71 µM
same,TGI,[6],3.19 µM
same,GI50,[7],1.69 µM
same,TGI,[7],3.75 µM
same,GI50,[8],2.7 µM
same,TGI,[8],> 100 µM
same,GI50,[9],2.21 µM
same,TGI,[9],5.94 µM
same,GI50,[10],1.92 µM
same,TGI,[10],3.89 µM
same,GI50,[11],4.63 µM
same,TGI,[11],15.8 µM
same,GI50,[12],1.73 µM
same,TGI,[12],3.27 µM
same,GI50,[13],1.85 µM
same,TGI,[13],5.65 µM
same,GI50,[14],1.5 µM
same,TGI,[14],3.86 µM
same,GI50,[15],2.15 µM
same,TGI,[15],5.17 µM
same,GI50,[16],1.84 µM
same,TGI,[16],4.57 µM
same,GI50,[17],1.56 µM
same,TGI,[17],3.11 µM
same,GI50,[18],2.44 µM
same,TGI,[18],7.8 µM
same,GI50,[19],1.73 µM
same,TGI,[19],3.96 µM
same,GI50,[20],1.79 µM
same,TGI,[20],3.38 µM
same,GI50,[21],1.75 µM
same,TGI,[21],3.22 µM
same,GI50,[22],2.13 µM
same,TGI,[22],4.59 µM
same,GI50,[23],1.77 µM
same,TGI,[23],3.31 µM
same,GI50,[24],9.22 µM
same,TGI,[24],22.6 µM
same,GI50,[25],1.79 µM
same,TGI,[25],3.65 µM
same,GI50,[26],1.98 µM
same,TGI,[26],4.42 µM
same,GI50,[27],2.25 µM
same,TGI,[27],4.82 µM
same,GI50,[28],7.01 µM
same,TGI,[28],19.2 µM
same,GI50,[29],1.71 µM
same,TGI,[29],3.13 µM
same,GI50,[30],1.78 µM
same,TGI,[30],3.38 µM
same,GI50,[31],2.1 µM
same,TGI,[31],4.71 µM
same,GI50,[32],1.57 µM
same,TGI,[32],3.2 µM
same,GI50,[33],1.81 µM
same,TGI,[33],4.13 µM
same,GI50,[34],2.15 µM
same,TGI,[34],4.65 µM
same,GI50,[35],1.22 µM
same,TGI,[35],4.09 µM
same,GI50,[36],1.82 µM
same,TGI,[36],3.57 µM
same,GI50,[37],1.68 µM
same,TGI,[37],3.21 µM
same,GI50,[38],1.78 µM
same,TGI,[38],3.56 µM
same,GI50,[39],1.99 µM
same,TGI,[39],3.45 µM
same,GI50,[40],1.91 µM
same,TGI,[40],3.73 µM
same,GI50,[41],1.74 µM
same,TGI,[41],3.26 µM
same,GI50,[42],1.62 µM
same,TGI,[42],3.02 µM
same,GI50,[43],2 µM
same,TGI,[43],4.98 µM
same,GI50,[44],1.65 µM
same,TGI,[44],3.08 µM
same,GI50,[45],2.28 µM
same,TGI,[45],5.95 µM
same,GI50,[46],1.84 µM
same,TGI,[46],3.71 µM
same,GI50,[47],2.1 µM
same,TGI,[47],6.43 µM
same,GI50,[48],2.78 µM
same,TGI,[48],8.34 µM
same,GI50,[49],1.64 µM
same,TGI,[49],3.01 µM
same,GI50,[50],1.64 µM
same,TGI,[50],3.18 µM
same,GI50,[51],3.09 µM
same,TGI,[51],10.7 µM
same,GI50,[52],1.45 µM
same,TGI,[52],7.59 µM
same,GI50,[53],1.7 µM
same,TGI,[53],4.46 µM
same,GI50,[54],1.76 µM
same,TGI,[54],3.63 µM
same,GI50,[55],3.52 µM
same,TGI,[55],12.2 µM
same,GI50,[56],1.71 µM
same,TGI,[56],3.3 µM
same,GI50,[57],1.6 µM
same,TGI,[57],4.37 µM
COc1ccc(CCC2c3c(cc4c(c3OC)OCO4)CCN2C)cc1 (configuration not stated),GI50,[1],13.6 µM
same,TGI,[1],46.5 µM
same,GI50,[2],6.92 µM
same,TGI,[2],29.6 µM
same,GI50,[3],8.95 µM
same,TGI,[3],45 µM
same,GI50,[4],13.4 µM
same,TGI,[4],28.2 µM
same,GI50,[5],9.13 µM
same,TGI,[5],22.6 µM
same,GI50,[6],4.76 µM
same,TGI,[6],19.1 µM
same,GI50,[7],14.3 µM
same,TGI,[7],> 100 µM
same,GI50,[58],3.63 µM
same,TGI,[58],20.9 µM
same,GI50,[8],3.94 µM
same,TGI,[8],24.6 µM
same,GI50,[9],17.2 µM
same,TGI,[9],99.2 µM
same,GI50,[10],6.81 µM
same,TGI,[10],21.6 µM
same,GI50,[11],7.04 µM
same,TGI,[11],25.6 µM
same,GI50,[12],3.93 µM
same,TGI,[12],16.8 µM
same,GI50,[13],3.94 µM
same,TGI,[13],24 µM
same,GI50,[59],9.15 µM
same,TGI,[59],24 µM
same,GI50,[14],5.16 µM
same,TGI,[14],23.4 µM
same,GI50,[15],10.9 µM
same,TGI,[15],29.3 µM
same,GI50,[16],10.4 µM
same,TGI,[16],41.8 µM
same,GI50,[17],7.41 µM
same,TGI,[17],46.3 µM
same,GI50,[18],17 µM
same,TGI,[18],> 100 µM
same,GI50,[19],6.99 µM
same,TGI,[19],30.6 µM
same,GI50,[20],5.99 µM
same,TGI,[20],21 µM
same,GI50,[21],10.6 µM
same,TGI,[21],23.2 µM
same,GI50,[22],12.6 µM
same,TGI,[22],33.2 µM
same,GI50,[23],3.5 µM
same,TGI,[23],17.2 µM
same,GI50,[24],17.3 µM
same,TGI,[24],43.3 µM
same,GI50,[25],12.1 µM
same,TGI,[25],27.1 µM
same,GI50,[26],20.1 µM
same,TGI,[26],86.2 µM
same,GI50,[27],5.72 µM
same,TGI,[27],22.1 µM
same,GI50,[28],7.68 µM
same,TGI,[28],20.1 µM
same,GI50,[29],10.2 µM
same,TGI,[29],22.5 µM
same,GI50,[30],15 µM
same,TGI,[30],> 100 µM
same,GI50,[31],16.1 µM
same,TGI,[31],67.7 µM
same,GI50,[32],10.4 µM
same,TGI,[32],24.3 µM
same,GI50,[33],9.84 µM
same,TGI,[33],38.8 µM
same,GI50,[34],10.6 µM
same,TGI,[34],31.8 µM
same,GI50,[35],3.01 µM
same,TGI,[35],18 µM
same,GI50,[36],3.35 µM
same,TGI,[36],13.8 µM
same,GI50,[37],3.78 µM
same,TGI,[37],17.1 µM
same,GI50,[38],9.8 µM
same,TGI,[38],34.8 µM
same,GI50,[39],10.7 µM
same,TGI,[39],25.7 µM
same,GI50,[40],6.56 µM
same,TGI,[40],31.7 µM
same,GI50,[41],3.14 µM
same,TGI,[41],12.6 µM
same,GI50,[42],10.4 µM
same,TGI,[42],22.2 µM
same,GI50,[43],18 µM
same,TGI,[43],64.6 µM
same,GI50,[44],14.2 µM
same,TGI,[44],27.5 µM
same,GI50,[45],9.23 µM
same,TGI,[45],26.2 µM
same,GI50,[46],5.98 µM
same,TGI,[46],28.8 µM
same,GI50,[47],11.2 µM
same,TGI,[47],46.7 µM
same,GI50,[48],4.05 µM
same,TGI,[48],27.4 µM
same,GI50,[49],4.91 µM
same,TGI,[49],16.8 µM
same,GI50,[50],8.73 µM
same,TGI,[50],54.1 µM
same,GI50,[51],13.1 µM
same,TGI,[51],30.5 µM
same,GI50,[52],6.39 µM
same,TGI,[52],32.8 µM
same,GI50,[53],9.52 µM
same,TGI,[53],35.1 µM
same,GI50,[54],7.17 µM
same,TGI,[54],23.2 µM
same,GI50,[55],14.6 µM
same,TGI,[55],36.7 µM
same,GI50,[56],7.05 µM
same,TGI,[56],37.4 µM
same,GI50,[57],13.5 µM
same,TGI,[57],70.5 µM
